Experimental data: patent US9120774B2 (University of Kansas, priority 2009, dated 2015)

Key:
[1] = tested on: Hsp90-dependent client protein phospho-AKT in SKBr3 breast cancer cells; test: Degradation of phospho-AKT, Western blot in SKBr3 cells; format: cell-based; conditions: 100 μM
Method: Total protein concentration of each lysate was determined and equal amounts of protein were run in each lane of the gels. For the graphs shown in FIG. 1, the O.D.'s (optical density) of the Western bands for phospho-AKT were measured, as were the O.D.'s for actin probed as controls on the same blots. To obtain the graphed values, all specific O.D.'s (for Hsp90 clients) were normalized to the respective actin O.D.
Inhibition of Hsp90 results in the degradation of Hsp90-dependent clients via ubiquitination of the unfolded client followed by proteasome-mediated hydrolysis. […] Geldanamycin (GDA, 0.5 μM) was used as a positive control for Hsp90 inhibition.

[2] = tested on: Hsp90, androgen receptor and AKT in LNCaP prostate cancer cells; test: Western blot of Hsp90 and client proteins (AR, AKT) in LNCaP cells; format: cell-based; conditions: 24 hours
Method: (§1) FIG. 3 (top panel) is a western blot analysis of prostate cancer LNCaP cells treated with KU-1/A4. The bottom panel is a western blot analysis of prostate cancer LAPC-4 cells incubated with KU-1/A4. Actin was used as a control in both assays. […] Western blot analysis of the effects of KU-1/A4 on Hsp90 client proteins in prostate cancer LNCaP cells. Cells were treated with varying concentrations of KU-1/A4 for 24 hours and probed for the androgen receptor (“AR”), protein kinase […] (“AKT”), Hsp90, and actin.
(§2) The steroid hormone receptors are also dependent upon the Hsp90 protein folding machinery for activation and hormone binding. To determine whether KU-1/A4 had similar effects on the androgen receptor, KU-1/A4 was tested in both a mutated androgen receptor-dependent prostate cancer cell line (LNCaP) and a wild type androgen receptor prostate cancer cell line (LAPC-4). More specifically, the prostate cancer cells were grown in RPMI with 10% fetal calf serum in a standard fashion. Once the cells had reached near confluence, they were treated with vehicle (DMSO) or varying concentrations of KU-1/A4 ranging from 10 nm to 100 μM for 24 hours. Cells were harvested and cell lysates prepared. […] More specifically, Western Blot analysis protein concentrations in serum samples were determined by the Pierce BCA protein assay kit according to the manufacturer's protocol. […]

[3] = tested on: androgen receptor in LAPC-4 prostate cancer cells; test: Western blot of androgen receptor in LAPC-4 cells; format: cell-based; conditions: LAPC-4 cells (wild type androgen receptor), 24 hours
Method: as §1, §2

primary cortical neurons = test: Toxicity of drug alone in neuronal cells (Live-Dead assay); format: cell-based
Source text: More specifically, primary cortical neurons were recovered from embryonic day 18 rat brains as described previously (Michaelis et al., Immunological Localization And Kinetic Characterization Of A Na+/Ca2+Exchanger In Neuronal And Nonneuronal Cells, Brain Res. 661 104-116 (1994)). Briefly, about 10 to 16 brains were removed from fetuses delivered by cesarean section, and the cortices dissected out. The neurons were isolated and suspended in DMEM/F12 supplemented with 10% FBS and plated on sterile dishes or cover slips coated with 10 μg/ml poly-D-lysine and 5 μg/ml mouse laminin. After 24 hours, the serum-containing medium was removed, and neurons were maintained in Neurobasal medium (Gibco) with 2% B-27 supplements (Gibco). Cells were maintained in culture at 37° C. in 5% CO2 and 97% humidity for 7 to 8 eight days in vitro (DIV) before use. […] Stock solutions of Aβ were prepared in sterile water at a concentration of 1.3 mM and stored at −20° C. Aliquots of the stock solutions were diluted to 1 mM in sterile 50 mM Tris-HCl, pH 7.4, and incubated at 37° C. for 24 hours to promote oligomerization of the peptides prior to treatment of the neurons. The effects of KU-1/A4, GA, Aβ, or the indicated combinations on neuronal viability were determined by monitoring cell survival using the Live-Dead assay as previously described. […] Digital images from 6 fields per dish were captured, and the number of viable (green) and dead (red) cells counted. All experiments were conducted with duplicate dishes from at least two neuronal preparations for each treatment, with about 1,000 cells analyzed/treatment condition. The data are expressed as the fraction of viable cells calculated from the total number of neurons counted under each treatment condition. The significance of differences between cultures exposed to various treatment conditions was determined using Student's t-test.

[4] = tested on: bovine microvessel endothelial cells (BMECs); test: Transport across BMEC monolayers in vitro; format: in vitro ADME
Method: In this example, BMECs were grown on 0.4 μm polycarbonate membranes in a petri dish coated with rat tail collagen and fibronectin. […] Briefly, each chamber was filled with 3 mL of PBSA and the donor chamber included KU-1/A4 (10 μM). A temperature of 37° C. was maintained with an external circulating water bath and chamber contents were stirred with Teflon coated magnetic stir bars driven by an external console. At various time points (5, 15, 30, 45, and 90 minutes), 100 μL aliquots were removed from the receiver side and replaced with 100 μL of blank PBSA warmed to 37° C. Samples of the donor solution were also taken for analysis. All samples were analyzed for concentration by RP-HPLC analysis using a Shimadzu dual pump HPLC system equipped with an Alltech (C18, 4.6 mm×150 mm) column. The solvent system consisted of H2O (solvent A) and methanol (solvent B). Analytical samples were eluted with 20% solvent B over 10 minutes at a flow rate of 0.90 mL/min and UV detection at 208 nm. […] The integrity of the cell monolayer was tested post experiment by monitoring the permeability of [^14C]-sucrose, a low permeability marker. Radioactive samples were analyzed by liquid scintillation counting.

CO[C@@H]1[C@@H](O)[C@@H](O)[C@H](Oc2ccc3cc(NC(C)=O)c(=O)oc3c2)OC1(C)C [KU-1/A4, N-(7-((2R,3R,4S,5R)-3,4-dihydroxy-5-methoxy-6,6-dimethyl-tetrahydro-2H-pyran-2-yloxy)-2-oxo-2H-chromen-3-yl)acetamide]
degradation of phosphorylated AKT (Hsp90 inhibition) [1]: the most potent novobiocin analogues identified
concentration at which degradation of client proteins AR and AKT occurs [2]: 1 µM
lowest concentration inducing Hsp90 [2]: 10 nM
androgen receptor levels [3]: drastically reduced levels of the androgen receptor at lower concentrations
neurotoxicity of compound alone (primary cortical neurons; 100 nM (20× the EC50)): did not result in any observed neurotoxicity
toxic effects in neuronal cells (primary cortical neurons; 10 μM, 72 hours): no toxic effects
toxicity of the drug alone to neurons (primary cortical neurons; primary neurons, drug alone): no toxicity
time until abluminal chamber concentration sufficed for full neuroprotective effects ([4]; 10 μM in donor chamber): ≤ 15 min
concentration in the receiving chamber ([4]; 10 μM in donor chamber, 90 minutes): 1.2 µM
transport across BMECs ([4]; 10 μM in donor chamber, up to 90 minutes): time-dependent linear transport
receiving chamber concentration relative to concentration for 50% neuroprotection ([4]; 90 minutes): 200 fold
